Reference: paper PMC9695908, “Potent Activation of Human but Not Mouse TRPA1 by JT010” (International Journal of Molecular Sciences, 2022)

Target: T1, human TRPA1 (hTRPA1) (Homo sapiens, UniProt O75762)
T1 construct: wild-type hTRPA1 in HEK cells
Assay: Fura-2 Ca2+ imaging and whole-cell patch clamp in HEK-hTRPA1 cells; C621S and F669M mutants reduce response
Assay type: cell-based

T1 sequence (O75762 whole entry): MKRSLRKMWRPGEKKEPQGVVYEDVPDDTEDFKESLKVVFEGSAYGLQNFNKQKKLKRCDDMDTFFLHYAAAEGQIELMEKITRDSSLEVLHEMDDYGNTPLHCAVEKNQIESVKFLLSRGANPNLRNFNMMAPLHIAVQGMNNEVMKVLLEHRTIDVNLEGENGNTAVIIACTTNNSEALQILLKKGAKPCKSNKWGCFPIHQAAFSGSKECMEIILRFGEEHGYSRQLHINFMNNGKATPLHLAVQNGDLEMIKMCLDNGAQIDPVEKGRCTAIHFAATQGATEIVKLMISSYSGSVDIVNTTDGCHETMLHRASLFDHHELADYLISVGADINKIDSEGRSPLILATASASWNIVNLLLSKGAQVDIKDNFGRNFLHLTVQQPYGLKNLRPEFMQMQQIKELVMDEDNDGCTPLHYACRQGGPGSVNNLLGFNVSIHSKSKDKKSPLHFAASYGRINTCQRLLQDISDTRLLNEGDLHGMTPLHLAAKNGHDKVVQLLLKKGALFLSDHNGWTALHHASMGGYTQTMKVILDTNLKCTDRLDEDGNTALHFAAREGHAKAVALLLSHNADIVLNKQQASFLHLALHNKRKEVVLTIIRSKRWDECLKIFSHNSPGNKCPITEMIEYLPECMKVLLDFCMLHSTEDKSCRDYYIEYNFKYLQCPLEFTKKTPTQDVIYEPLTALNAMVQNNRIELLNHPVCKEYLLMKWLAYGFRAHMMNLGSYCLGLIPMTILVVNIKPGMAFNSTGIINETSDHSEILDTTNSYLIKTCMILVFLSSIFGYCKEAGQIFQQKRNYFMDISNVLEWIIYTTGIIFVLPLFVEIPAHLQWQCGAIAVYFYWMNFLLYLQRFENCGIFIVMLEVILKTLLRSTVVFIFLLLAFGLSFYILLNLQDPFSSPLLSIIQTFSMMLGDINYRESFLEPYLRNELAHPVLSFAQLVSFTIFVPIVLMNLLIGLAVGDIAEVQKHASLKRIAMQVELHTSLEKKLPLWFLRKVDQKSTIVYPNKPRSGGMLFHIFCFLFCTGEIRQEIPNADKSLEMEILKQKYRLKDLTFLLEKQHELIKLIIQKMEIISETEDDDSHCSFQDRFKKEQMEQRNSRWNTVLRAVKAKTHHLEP

Work on `COCCCN(C(=O)CCl)c1nc(-c2ccc(OC)cc2)cs1` [JT010] yielded an EC50 of ~10 nM.
